Measured values reported in US7026281B1, “Antagonistic analogs of GH-RH inhibiting IGF-I and -II” (The Administrators of the Tulane Educational Fund, priority 1998, dated 2006).
Marks after values point to notes of the source that are not given here. Square brackets hold non-standard residues; d marks the D form. Peptide text beside a SMILES is read from it. * marks the point of attachment. Phe(4-Cl) = N[C@@H](Cc1ccc(Cl)cc1)C(=O)O; hArg = N=C(N)NCCCC[C@H](N)C(=O)O; Nle = CCCC[C@H](N)C(=O)O; Abu = CC[C@H](N)C(=O)O; PhAc = O=C(Cc1ccccc1)*

What was measured:
[1] = tested on: GH release stimulated by hGH-RH(1–29)NH2; test: In vivo inhibition of serum GH response in rats; design: species or system rat; conditions: for Inhibition of the GH release stimulated by hGH-RH(1–29)NH2 (in words): 80 μg/kg i.v., rats
Method in brief: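 Male Sprague-Dawley rats (200–250 g) under Nembutal received antagonist at 80 μg/kg i.v., then GH-RH(1–29)NH2 at 3 μg/kg after 5, 15, 30 or 60 min; controls received vehicle (5.5% mannitol). GH was measured by RIA before antagonist and 5 min after GH-RH, and inhibition was calculated as […].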

[2] = tested on: hGH-RH(1–29)NH2 induced GH release; test: Inhibition of GH release in superfused rat pituitary system; assay type: cell-based; conditions: antagonist 30 nM; for Inhibition of GH release (%) 30 min: 1 nM hGH-RH(1–29)NH2 30 min later; for Inhibition of GH release (%) 60 min: 1 nM hGH-RH(1–29)NH2 60 min later; for Inhibition of GH release (%) 90 min: 1 nM hGH-RH(1–29)NH2 90 min later; for Inhibition of GH release (%) 120 min: 1 nM hGH-RH(1–29)NH2 120 min later; for Inhibition of GH release (%) 0 min: 1 nM hGH-RH(1–29)NH2 at 0 min
Method in brief: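 Superfused rat pituitary cells preincubated 9 min with peptide, then challenged for 3 min with 1 nM hGH-RH(1–29)NH2 at 0, 30, 60, 90 and 120 min. Rat GH measured by double-antibody RIA; net integral GH responses expressed as percent of the original 1 nM GH-RH-induced response.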

[3] = target: T1, rat pituitary GH-RH receptors (Rattus norvegicus, UniProt Q02644); test: GH-RH radioreceptor binding assay, rat anterior pituitary membrane homogenates; conditions: for Ki: competition with [His1,125I-Tyr10,Nle27]hGH-RH(1–32)NH2; for R.A. (relative affinity compared to Standard antagonist): ratio of Ki values
T1 construct: from tissue; host or cells: anterior pituitary of male Sprague-Dawley rats, crude membrane homogenates
T1 sequence (Q02644 23-464): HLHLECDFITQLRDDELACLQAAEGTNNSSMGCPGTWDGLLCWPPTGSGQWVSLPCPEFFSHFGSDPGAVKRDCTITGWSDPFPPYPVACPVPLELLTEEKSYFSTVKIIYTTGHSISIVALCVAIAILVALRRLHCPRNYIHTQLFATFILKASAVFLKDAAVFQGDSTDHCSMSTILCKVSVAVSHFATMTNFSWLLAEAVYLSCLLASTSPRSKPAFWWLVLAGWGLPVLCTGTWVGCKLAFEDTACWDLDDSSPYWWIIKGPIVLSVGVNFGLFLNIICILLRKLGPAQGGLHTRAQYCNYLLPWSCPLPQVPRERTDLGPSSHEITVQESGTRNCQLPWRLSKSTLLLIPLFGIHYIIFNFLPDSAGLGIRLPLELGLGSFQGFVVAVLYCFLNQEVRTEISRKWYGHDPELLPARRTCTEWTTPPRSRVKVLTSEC
Method in brief: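 Antagonists competed with [His^1,^125I-Tyr^10,Nle^27]hGH-RH(1–32)NH2 for binding to crude anterior pituitary membranes from male Sprague-Dawley rats, with γ-counting of the pellet. Ki came from Munson–Rodbard analysis. Relative affinity is the Ki of the test antagonist divided by the Ki of standard [Ac-Tyr^1,D-Arg^2]hGH-RH(1–29)NH2.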

[4] = tested on: HT-29 human colon cancers; test: HT-29 human colon cancer xenografts in nude mice; assay type: in vivo; conditions: 20 μg daily sc., 6 weeks; for Final tumor volume (mm^3) / Tumor weight: nude mice
Procedure: HT-29 human colon cancers were transplanted sc. into male nude mice. 19 days after transplantation, the mice were divided into groups of 10 animals each, and the treatment was started. The mice received single daily injections of various GH-RH antagonists sc. at 20 μg dose per day for 6 weeks. Tumors were measured regularly, and tumor volume was calculated. The mice were sacrificed at the end of experiment and tumor weights were measured.

[5] = tested on: mammary (MDA-MB-468, ZR-75-1), prostatic (PC-3 and DU-145), and pancreatic (MiaPaCa-2, SW-1990 and Capan-2) cancer cell lines; conditions: MDA-MB-468, ZR-75-1, PC-3, DU-145, MiaPaCa-2, SW-1990, Capan-2; cited from earlier work
IGF-II = conditions: same cancer cell lines in vitro; cited from earlier work
[6] = tested on: PC-3 human prostate cancer xenografts; test: PC-3 human prostate cancer xenografts in nude mice; assay type: in vivo; conditions: 20 μg daily s.c., 21 days
Procedure: Male nude mice were implanted s.c. with 3 mm^3 pieces of PC-3 human hormone-independent prostate cancer tissue into both flanks. When tumors reached a volume of approx. 40–50 mm^3 the mice were divided into 3 experimental groups. The first and second groups were treated with peptides Peptide 3 and MZ-5-156, respectively, in single daily s.c. injections of 20 μg for 21 days, while the third group served as control. Tumor volumes were measured at weekly intervals, tumor weights were measured at the end of experiment.

[7] = tested on: MDA-MB-468 human breast cancer xenografts; test: MDA-MB-468 human breast cancer xenografts in nude mice; assay type: in vivo; conditions: 20 μg daily s.c., 5 weeks
Procedure: Nude mice bearing MDA-MB-468 hormone-independent human breast cancer xenografts were divided into groups of 10 animals each. The treated groups received single daily s.c. injections of 20 μg of GH-RH antagonists. One group was treated with Peptide 1, a second group was treated with MZ-5-156 for comparison. The control group was injected with the vehicle solvent. The treatment was continued for 5 weeks. Tumors were measured once a week and tumor volume was calculated. The mice were sacrificed at the end of experiment and tumor weights were measured.

[8] = tested on: Estrogen independent MXT mouse mammary tumors; test: MXT mouse mammary tumors in BDF mice; assay type: in vivo; conditions: 20 μg per day
Procedure: Estrogen independent MXT tumors were transplanted sc. to female BDF mice. One day after transplantation, the mice were divided into groups of 10 animals each, and the treatment was started. The mice in groups 1, 2, 3, and 4 received single injections daily of various GH-RH antagonists sc. at 20 μg dose per day for 18 days. In groups 5 and 6, the peptides were administered by Alzet osmotic pumps releasing a daily amount of 20 μg peptide. Tumors were measured regularly, and tumor volume was calculated. The mice were sacrificed on day 18 and tumor weights were measured.

[9] = antagonist 80 μg/kg i.v. 5 min before GH-RH
[10] = antagonist 80 μg/kg i.v. 15 min before GH-RH
[11] = antagonist 80 μg/kg i.v. 15 min before GH-RH 3 μg/kg
[12] = antagonist 80 μg/kg i.v. 30 min before GH-RH
[13] = antagonist 80 μg/kg i.v. 30 min before GH-RH 3 μg/kg
[14] = antagonist 80 μg/kg i.v. 60 min before GH-RH
[15] = antagonist 80 μg/kg i.v. 60 min before GH-RH 3 μg/kg
[16] = rGH=GHblood1/GHblood0, antagonist 80 μg/kg i.v. 5 min before GH-RH 3 μg/kg

Ki [3] [nM]	R.A. (relative affinity compared to Standard antagonist) [3]	Compound	Inhibition of the GH release stimulated by hGH-RH(1–29)NH2 (in words) [1]	Relative inhibition % of GH response [1, 9] [%]	Relative inhibition % of GH response [1, 10] [%]	GH response mean ± S.E.M. [1, 11]	Relative inhibition % of GH response [1, 12] [%]	GH response mean ± S.E.M. [1, 13]	Relative inhibition % of GH response [1, 14] [%]	GH response mean ± S.E.M. [1, 15]	GH response mean ± S.E.M. [1, 16]	Inhibition of GH release (%) 30 min [2] [%]	Inhibition of GH release (%) 60 min [2] [%]	Inhibition of GH release (%) 90 min [2] [%]	Inhibition of GH release (%) 120 min [2] [%]	Inhibition of GH release (%) 0 min [2] [%]	Inhibitory effect on HT-29 human colon cancers (in words) [4]	Final tumor volume (mm^3) [4]	Tumor weight [4] [mg]	Rate of proliferation of cancer cell lines in vitro [5]	other results
0.058	51	CCCC[C@H](NC(=O)[C@@H](NC(=O)[C@H](CC(=O)O)NC(=O)[C@H](CCC(N)=O)NC(=O)[C@H](CC(C)C)NC(=O)[C@H](CC(C)C)NC(=O)[C@H](CCCCN)NC(=O)[C@H](CCCNC(=N)N)NC(=O)[C@H](C)NC(=O)[C@H](CO)NC(=O)[C@H](CC(C)C)NC(=O)[C@H](CCC(N)=O)NC(=O)[C@H](CC)NC(=O)[C@H](CC(C)C)NC(=O)[C@@H](NC(=O)[C@H](CCCCN)NC(=O)[C@H](CCCNC(=N)N)NC(=O)[C@H](Cc1ccc(O)cc1)NC(=O)[C@H](CCCNC(=N)N)NC(=O)[C@H](CC(N)=O)NC(=O)[C@@H](NC(=O)[C@H](Cc1ccc(Cl)cc1)NC(=O)[C@@H](NC(=O)[C@H](C)NC(=O)[C@H](CC(=O)O)NC(=O)[C@@H](CCCNC(=N)N)NC(=O)[C@H](Cc1ccc(O)cc1)NC(=O)Cc1ccccc1)[C@@H](C)CC)[C@@H](C)O)C(C)C)[C@@H](C)CC)C(=O)N[C@@H](CO)C(=O)N[C@H](CCCNC(=N)N)C(N)=O [Peptide 9, [PhAc^0, D-Arg^2, Phe(pCl)^6, Arg^9, Abu^15, Nle^27, D-Arg^29]hGH-RH(1–29)NH2] (PhAc-Y[dR]DAI[Phe(4-Cl)]TNRYRKVL[Abu]QLSARKLLQDI[Nle]S[dR]-NH2)	strong and long-lasting inhibition	75	59	3.85 ± 0.50	67	3.34 ± 0.30	10	7.32 ± 1.16	2.75 ± 0.75	87	79	72	59	91	smaller but still significant inhibition	1194 ± 506* mm^3	1383 ± 576	–	–
0.071	41	CCCC[C@H](NC(=O)[C@@H](NC(=O)[C@H](CC(=O)O)NC(=O)[C@H](CCC(N)=O)NC(=O)[C@H](CC(C)C)NC(=O)[C@H](CC(C)C)NC(=O)[C@H](CCCCN)NC(=O)[C@H](CCCNC(=N)N)NC(=O)[C@H](C)NC(=O)[C@H](CO)NC(=O)[C@H](CC(C)C)NC(=O)[C@H](CCC(N)=O)NC(=O)[C@H](CC)NC(=O)[C@H](CC(C)C)NC(=O)[C@@H](NC(=O)[C@H](CCCCN)NC(=O)[C@H](CCCNC(=N)N)NC(=O)[C@H](Cc1ccc(O)cc1)NC(=O)[C@H](CO)NC(=O)[C@H](CC(N)=O)NC(=O)[C@@H](NC(=O)[C@H](Cc1ccc(Cl)cc1)NC(=O)[C@@H](NC(=O)[C@H](C)NC(=O)[C@H](CC(=O)O)NC(=O)[C@@H](CCCNC(=N)N)NC(=O)[C@H](Cc1ccc(O)cc1)NC(=O)Cc1ccccc1)[C@@H](C)CC)[C@@H](C)O)C(C)C)[C@@H](C)CC)C(=O)N[C@H](CCCNC(=N)N)C(=O)N[C@@H](CCCCNC(=N)N)C(N)=O [Peptide 11, [PhAc^0, D-Arg^2, Phe(pCl)^6, Abu^15, Nle^27, D-Arg^28, Har^29]hGH-RH(1–29)NH2] (PhAc-Y[dR]DAI[Phe(4-Cl)]TNSYRKVL[Abu]QLSARKLLQDI[Nle][dR][hArg]-NH2)	strong and long-lasting inhibition	84	50	13.64 ± 1.41	40	16.04 ± 4.36	38	16.61 ± 6.02	5.15 ± 1.11	89	80	56	42	96	only little nonsignificant effect	1663 ± 610 mm^3	1849 ± 681	–	–
–	–	[Ibu^0, Tyr^1, D-Arg^2, Abu^15, Nle^27]hGH-RH(1–28) Agm [MZ-4-71, reference compound]	–	–	–	–	–	–	–	–	–	–	–	–	–	–	only little nonsignificant effect	1953 ± 400 mm^3	2189 ± 458	significantly inhibited	Expression of IGF-II mRNA in the cells and concentration of IGF-II secreted into the culture medium (IGF-II): reduced
–	–	[PhAc^0, D-Arg^2, Abu^15, Nle^27]hGH-RH(1–28) Agm [MZ-5-156, reference compound]	–	–	–	–	–	–	–	–	–	–	–	–	–	–	equally strong inhibitory effect	908 ± 195* mm^3	1012 ± 174	significantly inhibited	Inhibition in tumor volume [6]: 52%; Inhibition in tumor weight [6]: 46%; Final tumor volume (mm^3) ([6]; nude mice): 148.9 ± 41 mm^3; Tumor weight ([6]; nude mice): 104.3 ± 27.2 mg; Final tumor volume (mm^3) ([7]; nude mice): 104.4 ± 32.2** mm^3; Tumor weight ([7]; nude mice): 77.7 ± 31.7 mg; Number of regressed tumors ([7]; groups of 10): 3; Inhibitory effect on MXT mouse mammary cancers (in words) ([8]; 18 days): significant inhibition of tumor growth; Tumor volume (mm^3) On day 14 ([8]; single daily sc. injections): 2717 ± 773 mm^3; Tumor volume (mm^3) On day 18 ([8]; single daily sc. injections): 5368 ± 408* mm^3; Tumor weights ([8]; single daily sc. injections, day 18): 4885 ± 480 mg; Number of surviving mice ([8]; single daily sc. injections, groups of 10): 4; Expression of IGF-II mRNA in the cells and concentration of IGF-II secreted into the culture medium (IGF-II): reduced
